Patent US20080241834A1, “Method for improving neoadjuvant chemotherapy” (priority 2006, published 2008)

Key:
tumor cell lines = settings: BRCA1 protein reconstituted into the tumor cell lines; cited from earlier work
MCF7 cells = settings: BRCA1 protein downregulation, premature inactivation of the spindle checkpoint; cited from earlier work
lung cancer = settings: cited from earlier work
breast cancer = settings: cited from earlier work
ovarian cancer = settings: cited from earlier work
[1] = tested on: breast cancer in non-carriers; assay: Response to neoadjuvant chemotherapy in matched non-carrier breast cancer patients; format: in vivo, human
Method: (§1) 3479 unselected incident cases of invasive breast cancer were identified at 18 different hospitals in Poland during the study period. The medical records and pathology reports were reviewed locally at the study centre in Szczecin. Information was recorded on age at diagnosis, stage, grade and lymph-node status, estrogen-receptor status, multi-centricity and bilaterality. Pathology review of tumor blocks and/or paraffin-embedded slides were requested from the corresponding pathology centres. One or more specimens were obtained from 3136 of the […] patients. A central pathology review was conducted in Szczecin by two pathologists associated with the study. Pathologists were blinded to mutation status. […] Pre-treatment tumor size was determined in all patients by a combination of clinical examination and mammography (for some patients ultrasound examinations were also performed). Post-treatment size was determined by pathology report. Lymph node status was evaluated prior to and after treatment. Pre-treatment lymph node status was evaluated with a combination of clinical exam, ultrasound and fine needle aspiration. After treatment all patients underwent axillary dissection and node status was evaluated by pathology report. […] The statistical significance of group differences was assessed using Fisher's Exact Test. […]

[2] = tested on: breast cancer in BRCA1 mutation carriers; assay: Response to neoadjuvant chemotherapy in breast cancer patients carrying a BRCA1 mutation; format: in vivo, human
Method: as §1

Structure (SMILES) | sensitivity to paclitaxel (tumor cell lines) | sensitivity to paclitaxel (MCF7 cells) | effectivity (lung cancer) | effectivity (breast cancer) | effectivity (ovarian cancer) | patients with complete or partial response, of patients treated ([1]; non-carriers) | patients who responded ([1]; non-carriers with ER-negative tumors) | patients with complete or partial response, of patients treated [2]
CC(=O)O[C@H]1C(=O)[C@@]2(C)[C@H]([C@H](OC(=O)c3ccccc3)[C@]3(O)C[C@H](OC(=O)[C@H](O)[C@@H](NC(=O)c4ccccc4)c4ccccc4)C(C)=C1C3(C)C)[C@]1(OC(C)=O)CO[C@@H]1C[C@@H]2O [paclitaxel] | increased | insensitive | ~20% | ~50% | around 30% | – | – | –
CC(=O)O[C@@]12CO[C@@H]1C[C@H](O)[C@@]1(C)C(=O)[C@H](O)C3=C(C)[C@@H](OC(=O)[C@H](O)[C@@H](NC(=O)OC(C)(C)C)c4ccccc4)C[C@@](O)([C@@H](OC(=O)c4ccccc4)[C@H]21)C3(C)C [docetaxel] | – | – | – | – | – | 12 of 12 | 4 | 6 of the 15
